Experimental data: PubChem BioAssay AID1963834 (Molecular Pharmacology Branch, DTP, NCI, 2024)

Tested on: 873145-292-R-J1-PDC complex spheroid viability
Assay: Anticancer human tumor 873145-292-R-J1-PDC patient-derived renal clear cell carcinoma cell line growth inhibition [POLQ]
Conditions: for IC50: curve of first compound; for viability, T/C: stronger effect = lower value; active = viability on the fitted dose curve at most 10% of control; inactive = the rest
How it was run: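 Patient-derived tumour cells were co-cultured with HUVEC and mesenchymal stem cells as multicellular spheroids at 37 °C. They were treated with POLQ inhibitors (novobiocin, ART-558, RP6685) alone or combined with other agents. Top concentrations were at or near clinical Cmax (otherwise 10 microM; SN-38 at 1 microM), decreasing in half-log steps.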

[1] = second compound 0.0316 µM, first compound 0.0316 µM
[2] = second compound 0.0316 µM, first compound 0.1 µM
[3] = second compound 0.0316 µM, first compound 0.316 µM
[4] = second compound 0.0316 µM, first compound 1 µM
[5] = second compound 0.1 µM, first compound 0.0316 µM
[6] = second compound 0.1 µM, first compound 0.1 µM
[7] = second compound 0.1 µM, first compound 0.316 µM
[8] = second compound 0.1 µM, first compound 1 µM
[9] = second compound 0.316 µM, first compound 0.0316 µM
[10] = second compound 0.316 µM, first compound 0.1 µM
[11] = second compound 0.316 µM, first compound 0.316 µM
[12] = second compound 0.316 µM, first compound 1 µM
[13] = second compound 1 µM, first compound 0.0316 µM
[14] = second compound 1 µM, first compound 0.1 µM
[15] = second compound 1 µM, first compound 0.316 µM
[16] = second compound 1 µM, first compound 1 µM
[17] = second compound 3.16 µM, first compound 0.0316 µM
[18] = second compound 3.16 µM, first compound 0.1 µM
[19] = second compound 3.16 µM, first compound 0.316 µM
[20] = second compound 3.16 µM, first compound 1 µM
[21] = second compound 10 µM, first compound 0.0316 µM
[22] = second compound 10 µM, first compound 0.1 µM
[23] = second compound 10 µM, first compound 0.316 µM
[24] = second compound 10 µM, first compound 1 µM
[25] = second compound 0.0316 µM, first compound 3.16 µM
[26] = second compound 0.0316 µM, first compound 10 µM
[27] = second compound 0.1 µM, first compound 3.16 µM
[28] = second compound 0.1 µM, first compound 10 µM
[29] = second compound 0.316 µM, first compound 3.16 µM
[30] = second compound 0.316 µM, first compound 10 µM
[31] = second compound 1 µM, first compound 3.16 µM
[32] = second compound 1 µM, first compound 10 µM
[33] = second compound 3.16 µM, first compound 3.16 µM
[34] = second compound 3.16 µM, first compound 10 µM
[35] = second compound 10 µM, first compound 3.16 µM
[36] = second compound 10 µM, first compound 10 µM
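Note: spheroids exposed to compounds for 7 days before viability readout.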
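Throughout, for viability, T/C: luminescence signal used as surrogate for viable cell content; 100% = DMSO vehicle control viability.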

CCc1c2c(nc3ccc(O)cc13)-c1cc3c(c(=O)n1C2)COC(=O)[C@]3(O)CC + COC1C(OC(N)=O)C(O)C(Oc2ccc3c(O)c(NC(=O)c4ccc(O)c(CC=C(C)C)c4)c(=O)oc3c2C)OC1(C)C
0.0637 µM: IC50 (second compound 0.1 µM)
0.0504 µM: IC50 (second compound 1 µM)
0.0598 µM: IC50 (second compound 3.16 µM)
0.0678 µM: IC50 (second compound 0.316 µM)
0.0829 µM: IC50 (second compound 10 µM)
inactive: viability, T/C (second compound 0.0316 µM, first compound 0.00316 µM) 108% | viability, T/C (second compound 0.0316 µM, first compound 0.01 µM) 86.7% | viability, T/C [1] 58.6% | viability, T/C [2] 47.1% | viability, T/C [3] 40.6% | viability, T/C [4] 28.6% | viability, T/C (second compound 0.1 µM, first compound 0.00316 µM) 96.4% | viability, T/C (second compound 0.1 µM, first compound 0.01 µM) 92.1% | viability, T/C [5] 53.7% | viability, T/C [6] 48.4% | viability, T/C [7] 36.7% | viability, T/C [8] 26.9% | viability, T/C (second compound 0.316 µM, first compound 0.00316 µM) 103% | viability, T/C (second compound 0.316 µM, first compound 0.01 µM) 83% | viability, T/C [9] 59.2% | viability, T/C [10] 43.2% | viability, T/C [11] 39.7% | viability, T/C [12] 28.6% | viability, T/C (second compound 1 µM, first compound 0.00316 µM) 104% | viability, T/C (second compound 1 µM, first compound 0.01 µM) 87.2% | viability, T/C [13] 58.1% | viability, T/C [14] 36.6% | viability, T/C [15] 39.4% | viability, T/C [16] 28.7% | viability, T/C (second compound 3.16 µM, first compound 0.00316 µM) 99.8% | viability, T/C (second compound 3.16 µM, first compound 0.01 µM) 77.1% | viability, T/C [17] 57% | viability, T/C [18] 42.2% | viability, T/C [19] 37.6% | viability, T/C [20] 27.2% | viability, T/C (second compound 10 µM, first compound 0.00316 µM) 99.7% | viability, T/C (second compound 10 µM, first compound 0.01 µM) 75.4% | viability, T/C [21] 53.4% | viability, T/C [22] 55.4% | viability, T/C [23] 39.2% | viability, T/C [24] 26.2%
0.0788 µM: IC50 (second compound 0.0316 µM)

C=CC(=O)N1CCN(c2nc(=O)n(-c3c(C)ccnc3C(C)C)c3nc(-c4c(O)cccc4F)c(F)cc23)C(C)C1 (stereo unspecified) + COC1C(OC(N)=O)C(O)C(Oc2ccc3c(O)c(NC(=O)c4ccc(O)c(CC=C(C)C)c4)c(=O)oc3c2C)OC1(C)C
inactive: viability, T/C [1] 102% | viability, T/C [2] 97.9% | viability, T/C [3] 110% | viability, T/C [4] 114% | viability, T/C [25] 119% | viability, T/C [26] 130% | viability, T/C [5] 98.7% | viability, T/C [6] 99.6% | viability, T/C [7] 91.5% | viability, T/C [8] 111% | viability, T/C [27] 114% | viability, T/C [28] 114% | viability, T/C [9] 102% | viability, T/C [10] 97% | viability, T/C [11] 118% | viability, T/C [12] 113% | viability, T/C [29] 138% | viability, T/C [30] 119% | viability, T/C [13] 94.5% | viability, T/C [14] 94% | viability, T/C [15] 105% | viability, T/C [16] 104% | viability, T/C [31] 120% | viability, T/C [32] 126% | viability, T/C [17] 92.4% | viability, T/C [18] 92.7% | viability, T/C [19] 105% | viability, T/C [20] 113% | viability, T/C [33] 126% | viability, T/C [34] 121% | viability, T/C [21] 99.7% | viability, T/C [22] 109% | viability, T/C [23] 113% | viability, T/C [24] 116% | viability, T/C [35] 111% | viability, T/C [36] 125%
> 10 µM: IC50 (second compound 0.0316 µM) | IC50 (second compound 0.1 µM) | IC50 (second compound 0.316 µM) | IC50 (second compound 1 µM) | IC50 (second compound 3.16 µM) | IC50 (second compound 10 µM)

COc1cccc2c1C(=O)c1c(O)c3c(c(O)c1C2=O)CC(O)(C(=O)CO)CC3OC1CC(N)C(O)C(C)O1 (stereo unspecified) + Nc1ccc(C#CCN(C(=O)Cc2ncc(C(F)(F)F)cc2C(F)(F)F)c2ccc(F)cc2)nn1
1.64 µM: IC50 (second compound 0.1 µM)
1.25 µM: IC50 (second compound 3.16 µM)
0.877 µM: IC50 (second compound 10 µM)
inactive: viability, T/C [1] 100% | viability, T/C [2] 86.6% | viability, T/C [3] 95.9% | viability, T/C [4] 81.7% | viability, T/C [5] 113% | viability, T/C [6] 93.3% | viability, T/C [7] 85.1% | viability, T/C [8] 84.7% | viability, T/C [9] 98.9% | viability, T/C [10] 91.9% | viability, T/C [11] 84.3% | viability, T/C [12] 83% | viability, T/C [13] 99.1% | viability, T/C [14] 85.7% | viability, T/C [15] 84.5% | viability, T/C [16] 86.2% | viability, T/C [17] 92.4% | viability, T/C [18] 93.9% | viability, T/C [19] 99% | viability, T/C [20] 61.4% | viability, T/C [21] 106% | viability, T/C [22] 97.5% | viability, T/C [23] 111% | viability, T/C [24] 42.9%
1.6 µM: IC50 (second compound 0.0316 µM)
active: viability, T/C [25] 3.57% | viability, T/C [26] 1.97% | viability, T/C [27] 3.75% | viability, T/C [28] 2.69% | viability, T/C [29] 4.08% | viability, T/C [30] 2.88% | viability, T/C [31] 3.81% | viability, T/C [32] 3.33% | viability, T/C [33] 1.38% | viability, T/C [34] 2.89% | viability, T/C [35] 1.14% | viability, T/C [36] 2.84%
1.62 µM: IC50 (second compound 0.316 µM)
1.66 µM: IC50 (second compound 1 µM)
